Reference: PMC11003480, “Promising inhibition of diabetes-related enzymes and antioxidant properties of Ptilostemon casabonae leaves extract” (Journal of Enzyme Inhibition and Medicinal Chemistry, 2023)

What was measured:
[1] = target: Saccharomyces cerevisiae α-glucosidase; assay: α-Glucosidase inhibition assay (pNPG substrate); format: biochemical; conditions: for α-Glucosidase Mode of inhibition: Lineweaver-Burk plot; for equilibrium constant for binding with the enzyme-substrate complex (KIS): from intercepts (1/Vmax) versus inhibitor concentration; for equilibrium constant for binding with the free enzyme (KI): from slope (Km/Vmax) versus inhibitor concentration
Description: The concentrations of extract required to give 50% inhibition of enzyme activity (IC50) were determined. […] The Lineweaver-Burk double reciprocal plot was used to determine the mode of α-glucosidase inhibition by performing assays at different concentrations of substrate and extract or compound. Grafit 7 (Erithacus, East Grinstead, UK) was used as data analysis software. α-Glucosidase inhibitory activity was analysed following the method described by Delogu et al.[15]. […] It was first incubated for 15 min at 37 °C. Then, 20 µL of p-nitrophenyl α-D-glucopyranoside solution (pNPG, 5 mM) was added. After further 15 min of incubation at 37 °C, the reaction was stopped by adding 50 μL of 0.2 M sodium carbonate solution. α-Glucosidase activity was determined with a 96-well microplate reader by measuring the absorbance at 405 nm. The mode of inhibition was determined, and the equilibrium constant for binding with the enzyme–substrate complex (KIS) was obtained from the vertical intercepts plotted versus inhibitor concentration.

[2] = tested on: Saccharomyces cerevisiae α-glucosidase; set-up: method as in PMID 25805337; conditions: cited from earlier work
[3] = Ferric reducing antioxidant power assay (FRAP); conditions: ferrous equivalents; 4 min, absorbance 593 nm
Description: Ferric reducing antioxidant power assay (FRAP) was conducted as previously described, with slight modifications. An amount of 10 µL of the extract was mixed with 2 ml of the TPTZ–ferric solution and than incubated for 4 min at room temperature in the dark. The absorbance was read at 593 nm and the result was expressed as ferrous equivalents (FE; mg Fe^2+ equivalents/mL solution). Ascorbic acid was used as reference compound.

[4] = ABTS radical scavenging activity; conditions: 50% reduction of absorbance at 734 nm after 1 min
Description: Briefly, the reaction between the reduced ABTS (7 mM) with potassium persulfate (2.45 mM) in an aqueous solution at room temperature for 24 h, was performed to produce free radical ABTS^.+. Then, different concentrations of extract (10 μL) were added to 1 ml of ABTS^.+, and the absorbance at 734 nm was recorded after 1 min. The activity was expressed as the concentration of sample necessary to give a 50% reduction in the original absorbance (EC50).

O=C(/C=C/c1ccc(O)c(O)c1)O[C@@H]1C[C@](OC(=O)/C=C/c2ccc(O)c(O)c2)(C(=O)O)C[C@@H](O)[C@H]1O [1,5-Dicaffeoylquinic acid (9), 1,5-Dicaffeoylquinic acid]
α-Glucosidase IC50 [1]: 36.64 ± 0.07 µg/mL
α-Glucosidase Mode of inhibition [1]: Uncompetitive
equilibrium constant for binding with the enzyme-substrate complex (KIS) [1]: 69.4 µg/mL

O=C(/C=C/c1ccc(O)c(O)c1)O[C@@H]1CC(O)(C(=O)O)C[C@@H](OC(=O)/C=C/c2ccc(O)c(O)c2)C1O (stereo partly shown) [3,5-dicaffeoylquinic acid, 3,5-Dicaffeoylquinic acid]
α-glucosidase inhibition (in words) [2]: able to inhibit this enzyme

O=C(/C=C/c1ccc(O)c(O)c1)O[C@H]1[C@H](O)C[C@](O)(C(=O)O)C[C@H]1OC(=O)/C=C/c1ccc(O)c(O)c1 [4,5-dicaffeoylquinic acid]
α-glucosidase inhibition (in words) [2]: able to inhibit this enzyme

O=c1cc(-c2ccc(O)cc2)oc2cc(O)cc(O)c12 [Apigenin (23), Apigenin]
α-Glucosidase IC50 [1]: 3.88 ± 1.48 µg/mL
α-Glucosidase Mode of inhibition [1]: Mixed
α-Glucosidase Mode of inhibition ([1]; listed as apigenin): mixed-type inhibition
equilibrium constant for binding with the enzyme-substrate complex (KIS) [1]: 19.6 µg/mL
equilibrium constant for binding with the free enzyme (KI) [1]: 6.5 µg/mL

O=C1O[C@H]([C@@H](O)CO)C(O)=C1O [Ascorbic acid]
FRAP [3]: 1.81 ± 0.13 mg FE/mL

O=C(/C=C/c1ccc(O)c(O)c1)O[C@@H]1C[C@](O)(C(=O)O)C[C@@H](O)[C@H]1O [Chlorogenic acid (1), 5-O-Caffeoylquinic acid (Chlorogenic acid)]
α-Glucosidase IC50 [1]: >100 µg/mL
α-glucosidase inhibitory activity (in words) [1]: no inhibitory activity

C[C@@H]1O[C@@H](OC[C@H]2O[C@@H](Oc3c(-c4ccc(O)c(O)c4)oc4cc(O)cc(O)c4c3=O)[C@H](O)[C@@H](O)[C@@H]2O)[C@H](O)[C@H](O)[C@H]1O [Rutin (4), Quercetin 3-O-rutinoside (Rutin)]
α-Glucosidase IC50 [1]: 20.54 ± 4.45 µg/mL
α-Glucosidase Mode of inhibition [1]: Mixed
α-Glucosidase Mode of inhibition ([1]; listed as rutin): mixed-type inhibition
equilibrium constant for binding with the enzyme-substrate complex (KIS) [1]: 80.2 µg/mL
equilibrium constant for binding with the free enzyme (KI) [1]: 9.3 µg/mL

Cc1c(C)c2c(c(C)c1O)CCC(C)(C(=O)O)O2 (stereo not shown) [Trolox, 6-hydroxy-2,5,7,8-tetramethylchromane-2-carboxylic acid]
ABTS EC50 [4]: 3.4 ± 0.3 µg/mL
